According to US20250179114A1, “Anti-Inflammatory Compound and Use Thereof” (DUALITY BIOLOGICS (SUZHOU) CO., LTD., priority 2021, published 2025):

How the values were obtained:
Type in all cases: cell-based
[1] = test system: IFN-α secretion from PBMC under R848 stimulation; test: R848-induced release of IFNα from human peripheral blood monocytes (PBMC); design: unit not given here; conditions: R848 5 μM, 24 h, ELISA
Method: (§1) Example 4: Inhibitory Effect of Compounds of the Present Invention on R848-Induced Release of IFNα and TNFα from Human Peripheral Blood Monocytes
(§2) The compounds of the present application were detected for their inhibitory effect on the production of peripheral blood monocytes. The peripheral blood monocytes were treated in vitro with the ligand-drug conjugates at different concentrations, and IFNα and TNFα produced by the peripheral blood monocytes were quantitatively detected after a certain time. The compounds of the present invention were evaluated for in-vitro activity.
(§3) The cryopreserved human PBMC cells were resuspended in a complete medium and counted, and the cell suspension was adjusted to 2.5×10^6 cells/mL with the culture medium. After the suspension was centrifuged to collect the cells the next day, the cells were resuspended using fresh culture medium. Test compounds were diluted to 4-fold final concentration in cell culture medium, 50 μL of the compounds were added into a 96-well cell plate, and 100 μL of diluted cells (800,000 cells/well) were added into each well of the 96-well plate containing the compounds, followed by addition of 50 μL R848 to a final concentration of 5 μM. The cell plate was incubated at 37° C. with 5% CO2 for 24 h. The supernatant was collected, and the TNF-α and IFN-α concentration levels in the supernatant were detected using an ELISA kit. TNF-α concentration assay was performed using Dakewe TNF-α ELISA kit (Cat #1117202), 100 μL of the serially-diluted cytokine standard was added into each well, 100 μL of the above supernatant diluted 10-fold was added into each well, and 100 μL of 1× dilution buffer R was added into each blank control well. 50 μL of biotinylated antibody working solution was added into each well. After mixing well, the plate was covered with a plate-sealing membrane and incubated at room temperature for 3 h. The plate was washed for 3 times: the liquid in each well was discarded, and 300 μL of 1× washing buffer working solution was added into each well; after 1 minute of residence, the liquid in the wells was discarded. The procedure was repeated for 3 times. 100 μL of Streptavidin-HRP working solution was added into each well. The plate was covered with the plate-sealing membrane and incubated at room temperature for 20 min. The plate was washed for 3 times, 100 μL of TMB liquid was added into each well, and the plate was incubated at room temperature (18-25° C.) in the dark for 25 min. The reaction was stopped by adding 100 μL stop solution rapidly to each well. The reading at a wavelength of 450 nm was detected by an M2e instrument within 10 min after termination.
IFN-α concentration assay was performed using Dakewe IFN-α ELISA kit (Cat #1110012), 100 μL of the serially-diluted cytokine standard was added into each well, 100 μL of the above supernatant diluted 2-fold was added into each well, and 100 μL of 1× dilution buffer R was added into each blank control well. 50 μL of biotinylated antibody working solution was added into each well. After mixing well, the plate was covered with a plate-sealing membrane and incubated at room temperature for 3 h. The plate was washed for 3 times: the liquid in each well was discarded, and 300 μL of 1× washing buffer working solution was added into each well; after 1 minute of residence, the liquid in the wells was discarded. The procedure was repeated for 3 times. 100 μL of Streptavidin-HRP working solution was added into each well. The plate was covered with the plate-sealing membrane and incubated at room temperature for 20 min. The plate was washed for 3 times, 100 μL of TMB liquid was added into each well, and the plate was incubated at room temperature (18-25° C.) in the dark for 25 min. The reaction was stopped by adding 100 μL stop solution rapidly to each well. The reading at a wavelength of 450 nm was detected by an M2e instrument within 10 min after termination. […]

[2] = test system: TNF-α secretion from PBMC under R848 stimulation; test: R848-induced release of TNFα from human peripheral blood monocytes (PBMC); design: unit not given here; conditions: R848 5 μM, 24 h, ELISA
Method: as §1, §2, §3
The contents of TNF-α and IFN-α were calculated from the OD450 values (Mean±standard deviation).

glucocorticoid receptor = biological target: T1, glucocorticoid receptor (Homo sapiens, UniProt P04150); test: Activity assay of glucocorticoid receptor reporter gene GRE; conditions: HEK293 cells transfected with pGL5 and pBIND-GR; 24 h; Dual-Glo luciferase
T1 construct: host or cells: HEK293
T1 sequence (P04150 1-777): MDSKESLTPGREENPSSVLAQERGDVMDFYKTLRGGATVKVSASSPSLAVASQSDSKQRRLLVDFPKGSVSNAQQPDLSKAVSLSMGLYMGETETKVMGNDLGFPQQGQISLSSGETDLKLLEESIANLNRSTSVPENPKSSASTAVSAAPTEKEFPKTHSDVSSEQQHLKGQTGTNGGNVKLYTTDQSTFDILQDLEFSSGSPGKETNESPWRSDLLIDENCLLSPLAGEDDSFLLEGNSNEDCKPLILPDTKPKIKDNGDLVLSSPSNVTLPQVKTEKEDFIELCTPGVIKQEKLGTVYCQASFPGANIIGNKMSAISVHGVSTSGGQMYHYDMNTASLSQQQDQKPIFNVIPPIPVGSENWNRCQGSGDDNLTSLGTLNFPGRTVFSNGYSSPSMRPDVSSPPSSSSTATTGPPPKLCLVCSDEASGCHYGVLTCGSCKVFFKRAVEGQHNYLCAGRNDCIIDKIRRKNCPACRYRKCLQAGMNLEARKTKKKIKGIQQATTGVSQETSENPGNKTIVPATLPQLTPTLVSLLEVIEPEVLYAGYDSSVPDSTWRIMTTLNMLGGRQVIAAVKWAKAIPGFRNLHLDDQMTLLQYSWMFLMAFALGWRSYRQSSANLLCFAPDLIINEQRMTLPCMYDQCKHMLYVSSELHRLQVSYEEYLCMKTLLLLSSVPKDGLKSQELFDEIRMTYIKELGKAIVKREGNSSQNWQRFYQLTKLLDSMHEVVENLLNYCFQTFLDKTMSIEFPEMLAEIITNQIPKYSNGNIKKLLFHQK
Method: HEK293 cells were cultured in DMEM+10% FBS medium in a carbon dioxide incubator humidified at 37° C. with 5% carbon dioxide.
HEK293 cells were digested with trypsin, and the HEK293 cell resuspension was adjusted to 200,000 cell/mL in medium (96 well plate: 100 μL/well).
Transfection reagent mixtures were prepared according to Tables 5a and 5b below, mixed well and left to stand at room temperature for 20 min.
The prepared transfection mixtures were added to 10 mL of the cell density-adjusted resuspension, mixed well by turning the mixtures upside down, and seeded into a 96-well plate at a volume of 100 μL/well.
The 96-well plate was incubated in a humidified incubator at 37° C. with 5% carbon dioxide for 24 h.
The test plate was placed back into the incubator and incubated for 24 h.
The test plate was detected using the Dual-Glo Luciferase Assay System kit from Promega, and the fluorescence signal of Firefly Luciferase and the fluorescence signal of Renilla Luciferase were read using Enspire, respectively.
The final measurement value was a normalized value “F/R” obtained by dividing the Firefly Luciferase fluorescent signal by the Renilla Luciferase fluorescent signal.
The data were copied and pasted into Excel, and the activation rate was obtained through an equation.
The data were imported into MS Excel and subjected to curve fitting by using XLFit excel add-in version 5.4.0.8 to obtain an EC50 value.
Y is the agonism and X is the concentration of the compound.

SMILES	IFN-α content in supernatant (Mean±standard deviation) ([1]; compound 4 nM)	IFN-α content in supernatant (Mean±standard deviation) ([1]; compound 20 nM)	IFN-α content in supernatant (Mean±standard deviation) ([1]; compound 100 nM)	TNF-α content in supernatant (Mean±standard deviation) ([2]; compound 4 nM)	TNF-α content in supernatant (Mean±standard deviation) ([2]; compound 20 nM)	TNF-α content in supernatant (Mean±standard deviation) ([2]; compound 100 nM)	EC50 (glucocorticoid receptor)
C[C@]12C=CC(=O)C=C1CC[C@@H]1[C@@H]2[C@@H](O)C[C@@]2(C)[C@H]1C[C@H]1O[C@@H](c3ccn(Cc4cccc(N)c4)c3)O[C@]12C(=O)CO [Compound 1]	228.3 ± 0.2	0 ± 0	0 ± 0	1187.6 ± 87.4	611.9 ± 10.7	592.8 ± 92.1	–
C[C@]12C=CC(=O)C=C1CC[C@@H]1[C@@H]2[C@@H](O)C[C@@]2(C)[C@H]1C[C@H]1O[C@@H](c3ccn(Cc4ccc(N)cc4)c3)O[C@]12C(=O)CO [Compound 2]	108 ± 11	11.1 ± 11.1	0 ± 0	898.3 ± 27.7	584.4 ± 171.1	623.3 ± 238.4	0.15 nM
